{"source": "patent US20230117328A1", "about": "“METHODS TO TREAT CANCER USING (R)-N-(3-FLUORO-4-((3-((1-HYDROXYPROPAN-2-YL)AMINO)-1H-PYRAZOLO[3,4-B]PYRIDIN-4-YL)OXY)PHENYL)-3-(4-FLUOROPHENYL)-1-ISOPROPYL-2,4-DIOXO-1,2,3,4-TETRAHYDROPYRIMIDINE-5-CARBOXAMIDE” (Array BioPharma Inc., priority 2020, published 2023)", "key": {"[1]": {"test_system": "Sprague Dawley rats", "assay": "28-day repeat dose oral toxicity and toxicokinetic study with 28-day recovery period", "format": "in vivo"}, "[2]": {"target": "T1, BCRP (Homo sapiens, UniProt Q9UNQ0)", "T1 sequence (Q9UNQ0 1-655)": "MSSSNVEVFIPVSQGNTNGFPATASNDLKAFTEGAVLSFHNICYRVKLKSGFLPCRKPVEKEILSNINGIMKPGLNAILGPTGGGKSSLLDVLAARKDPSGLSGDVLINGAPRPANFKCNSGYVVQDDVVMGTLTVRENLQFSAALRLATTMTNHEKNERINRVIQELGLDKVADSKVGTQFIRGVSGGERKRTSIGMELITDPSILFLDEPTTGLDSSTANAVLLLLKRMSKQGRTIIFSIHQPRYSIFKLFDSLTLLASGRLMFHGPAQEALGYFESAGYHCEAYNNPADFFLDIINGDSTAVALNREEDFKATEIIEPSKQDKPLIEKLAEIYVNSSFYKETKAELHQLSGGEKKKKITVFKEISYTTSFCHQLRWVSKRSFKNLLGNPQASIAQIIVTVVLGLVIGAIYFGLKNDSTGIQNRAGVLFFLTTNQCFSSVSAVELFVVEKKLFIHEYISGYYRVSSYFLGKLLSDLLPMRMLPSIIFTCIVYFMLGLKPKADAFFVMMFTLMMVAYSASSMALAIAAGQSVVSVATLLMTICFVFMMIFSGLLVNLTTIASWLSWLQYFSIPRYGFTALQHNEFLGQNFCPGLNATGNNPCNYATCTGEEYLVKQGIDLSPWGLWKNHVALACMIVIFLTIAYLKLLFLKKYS", "assay": "BCRP substrate assessment in vitro", "format": "in vitro ADME"}, "[3]": {"test_system": "MC-38 colon adenocarcinoma tumors", "assay": "Antitumor efficacy in syngeneic MC-38 colon adenocarcinoma tumor-bearing mice", "format": "in vivo, C57BL/6 mice", "details": "MC-38 tumor-bearing mice; for Median Survival (days): not reached = more than 50% of animals alive at end of study (Day 66), 50 mg/kg", "method": "Female C57BL/6 bearing syngeneic MC-38 colon adenocarcinoma tumors (n=8/group, implanted on Day 0) were administered test articles Compound 1 or anti-PD-1, as monotherapy or in combination, starting on Day 10. As monotherapy, anti-PD-1 was administered twice weekly (BIW) for 2 consecutive weeks by intraperitoneal (IP) injection at 200 μg/mouse (Days 10, 13, 17, and 20). As monotherapy, Compound 1 was administered twice daily (BID) at 50 mg/kg by oral gavage (PO) for 28 consecutive days (Days 10-37). As combination therapy with anti-PD-1 (administered at the dose and schedule indicated above), Compound 1 was administered BID at 50 mg/kg PO for 1) 7 consecutive days (Days 10-16); 2) 14 consecutive days (Days 10-23); 3) 21 consecutive days (Days 10-30); 4) 28 consecutive days (Days 10-37); or, 5) 7 consecutive days on the first and third week of dosing (Days 10-16 and Days 24-30). This set of cohorts was used to determine both the tolerability and efficacy of Compound 1 treatment across dosing schedules, as well as ocular toxicity upon recovery on Day 66.\nFor initial tumor outgrowth, a suspension of 1×10^6 MC-38 cells in a volume of 100 μL PBS was implanted subcutaneously on the right flank of the animal near the axillary region. Animals were then randomly assigned to treatment groups. Treatment was initiated on day 10 after MC-38 tumor cell inoculation to allow for a sufficient treatment window (Table 1).\nAnti-PD-1 was administered twice weekly (BIW) for 2 consecutive weeks by intraperitoneal (IP) injection at 200 μg/mouse. Compound 1 was administered twice daily (BID) for 28 consecutive days by oral gavage (PO) at 50 mg/kg in 10 mL/kg dose volume (with or without anti-PD-1 administered on the above indicated dose and schedule). Alternatively, Compound 1 was administered BID for 7, 14 or 21 consecutive days, or on Days 10-16 and Days 24-30 in combination with anti-PD-1. Concomitantly, a set of satellite cohorts comprising tumor-naïve mice was treated with the same schedules and doses as indicated above.\nAnimals were monitored for tumor growth and body weight 2-3 times per week based on outgrowth kinetics. Tumor diameter was measured with digital calipers, and the tumor volume in mm^3 was calculated by the formula: Volume=((width)^2×length)/2. Animals were removed from study if found moribund or if tumor volume exceeded 1500 mm^3. […] Food, water, temperature and humidity were according to Pharmacology Testing Facility performance standards (SOPs) which are in accordance with the 1996 Guide for the Care and Use of Laboratory Animals (NRC) and AAALAC-International.\nThe murine MC-38 colon adenocarcinoma cell line was developed in C57BL/6 mice upon subcutaneous injection of dimethylhydrazine (Corbett, T. H., Griswold, D. P., et al. (1975), Cancer Research 35, 2434-2439). Extensive immunogenomic, transcriptomic, and therapeutic background are available on this cell line (Yadav, M., Jhunjhunwala, S., et al. (2014) Nature, 515, 572-576; and Efremova, M., Rieder, D., et al. (2018) Nat. Commun. 9, 32). The MC-38 cell line is reported to harbor driver mutations in TP53, PTEN, SMAD2, SMAD4, ACVR2A, TGFB2, BRAF, AXIN, SOX9, and ARID1A. Furthermore, mutations in the MMR gene MSH3 indicate that this cell line is a model of human MSI/hypermutated colorectal cancer. Whole exome sequencing has also identified 1290 transcript coding variations (compared to the reference C57BL/6 genome), among which 170 were predicted to be MHC Class I-presented neo-epitopes.\nMC-38 (National Cancer Institute-Frederick Tumor Repository, Frederick, Md.) cells were grown in a humidified atmosphere of 5% CO2 using DMEM growth media (Gibco Life Technologies, 11965-092) supplemented with 10% fetal bovine serum (HyClone SH30071.03, Logan, Utah) and 100 U/mL penicillin, 100 μg/mL streptomycin (Gibco Life Technologies, 15140-122). Cells were confirmed murine virus and mycoplasma negative (IDEXX Laboratories Inc, Columbia, Mo.) prior to implantation. […]"}, "[4]": {"target": "P-gp (Homo sapiens, UniProt P08183)", "sequence (P08183 whole entry)": "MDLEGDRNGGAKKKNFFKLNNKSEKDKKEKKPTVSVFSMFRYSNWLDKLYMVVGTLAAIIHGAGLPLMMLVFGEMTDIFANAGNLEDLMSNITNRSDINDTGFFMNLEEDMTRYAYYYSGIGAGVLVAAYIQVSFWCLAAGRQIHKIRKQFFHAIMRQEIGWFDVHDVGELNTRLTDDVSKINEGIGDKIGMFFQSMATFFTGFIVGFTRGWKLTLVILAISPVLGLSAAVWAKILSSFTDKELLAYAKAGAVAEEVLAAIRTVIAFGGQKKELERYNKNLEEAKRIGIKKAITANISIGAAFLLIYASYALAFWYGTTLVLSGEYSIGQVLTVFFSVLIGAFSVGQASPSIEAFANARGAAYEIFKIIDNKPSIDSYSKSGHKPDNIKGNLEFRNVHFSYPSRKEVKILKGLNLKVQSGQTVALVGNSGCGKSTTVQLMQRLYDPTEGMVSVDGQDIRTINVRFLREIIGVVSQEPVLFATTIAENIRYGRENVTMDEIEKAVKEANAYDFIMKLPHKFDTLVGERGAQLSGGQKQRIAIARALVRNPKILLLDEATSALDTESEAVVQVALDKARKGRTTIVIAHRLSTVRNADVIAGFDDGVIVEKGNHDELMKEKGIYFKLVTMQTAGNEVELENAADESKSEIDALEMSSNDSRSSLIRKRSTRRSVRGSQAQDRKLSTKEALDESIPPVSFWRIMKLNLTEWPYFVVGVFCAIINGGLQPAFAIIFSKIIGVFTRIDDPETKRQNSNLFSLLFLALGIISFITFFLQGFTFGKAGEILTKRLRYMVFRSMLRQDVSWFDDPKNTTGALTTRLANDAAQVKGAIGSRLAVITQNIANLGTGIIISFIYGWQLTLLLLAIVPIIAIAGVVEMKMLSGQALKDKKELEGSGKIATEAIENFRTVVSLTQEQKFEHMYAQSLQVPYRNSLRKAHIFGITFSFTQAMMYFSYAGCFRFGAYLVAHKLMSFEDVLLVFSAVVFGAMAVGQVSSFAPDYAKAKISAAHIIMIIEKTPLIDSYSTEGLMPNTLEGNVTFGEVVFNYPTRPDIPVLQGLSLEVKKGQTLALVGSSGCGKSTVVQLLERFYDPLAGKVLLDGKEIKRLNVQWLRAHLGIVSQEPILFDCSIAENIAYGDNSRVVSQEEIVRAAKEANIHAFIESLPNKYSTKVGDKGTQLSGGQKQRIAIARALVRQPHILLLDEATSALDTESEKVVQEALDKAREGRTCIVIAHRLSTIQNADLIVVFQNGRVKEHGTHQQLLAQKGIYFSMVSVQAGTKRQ", "assay": "P-gp substrate assessment in vitro", "format": "in vitro ADME"}, "[5]": {"test_system": "syngeneic tumor", "assay": "Re-challenge of cured tumor-bearing mice with the same syngeneic tumor", "format": "in vivo", "details": "tumor-bearing mice cured following treatment with Compound 1"}, "[6]": {"details": "oral QD 28 days at 30, 100 or 300/200 mg/kg"}, "[7]": {"details": "Compound 1 50 mg/kg PO BID Days 10-16 (7 days) in combination with anti-PD-1 200 μg IP BIW (Days 10, 13, 17, 20)"}, "[8]": {"details": "Compound 1 50 mg/kg PO BID Days 10-16 and Days 24-30 (interval schedule) in combination with anti-PD-1 200 μg IP BIW (Days 10, 13, 17, 20)"}, "[9]": {"details": "Compound 1 50 mg/kg PO BID Days 10-23 (14 days) in combination with anti-PD-1 200 μg IP BIW (Days 10, 13, 17, 20)"}, "[10]": {"details": "Compound 1 50 mg/kg PO BID Days 10-30 (21 days) in combination with anti-PD-1 200 μg IP BIW (Days 10, 13, 17, 20)"}, "[11]": {"details": "Compound 1 50 mg/kg PO BID Days 10-37 (28 days) in combination with anti-PD-1 200 μg IP BIW (Days 10, 13, 17, 20)"}, "[12]": {"details": "Compound 1 monotherapy, 50 mg/kg PO BID Days 10-37 (28 days)"}}, "data": [{"smiles": "CC(C)n1cc(C(=O)Nc2ccc(Oc3ccnc4[nH]nc(N[C@H](C)CO)c34)c(F)c2)c(=O)n(-c2ccc(F)cc2)c1=O", "note": "[Compound 1, (R)—N-(3-fluoro-4-((3-((1-hydroxypropan-2-yl)amino)-1H-pyrazolo[3,4-b]pyridin-4-yl)oxy)phenyl)-3-(4-fluorophenyl)-1-isopropyl-2,4-dioxo-1,2,3,4-tetrahydropyrimidine-5-carboxamide]", "values": [{"measurement": "adversity of changes in the eyes and testes", "setting": "[1]; oral QD 28 days", "result": "considered to be adverse"}, {"measurement": "dose with structural/functional changes in the eyes (outer retinal atrophy), female", "setting": "[1]; [6]", "result": 30, "unit": "mg/kg"}, {"measurement": "dose with structural/functional changes in the eyes (outer retinal atrophy), males", "setting": "[1]; [6]", "result": 100, "unit": "mg/kg"}, {"measurement": "reversibility of outer retinal atrophy", "setting": "[1]; oral QD 28 days, 28-day recovery period", "result": "unrecoverable"}, {"measurement": "BCRP substrate status", "setting": "[2]", "result": "substrate of P-gp and BCRP"}, {"measurement": "% TGI on Day 32", "setting": "[3]; [7]", "result": 96.6, "unit": "%"}, {"measurement": "Cures on Day 66", "setting": "[3]; [7]", "result": "6/8"}, {"measurement": "Median Survival (days)", "setting": "[3]; Compound 1 50 mg/kg PO BID Days 10-16 (7 days) in combination with anti-PD-1 200 μg IP BIW", "result": "not reached"}, {"measurement": "% TGI on Day 32", "setting": "[3]; [8]", "result": 96.2, "unit": "%"}, {"measurement": "Cures on Day 66", "setting": "[3]; [8]", "result": "4/8"}, {"measurement": "Median Survival (days)", "setting": "[3]; Compound 1 50 mg/kg PO BID Days 10-16 and Days 24-30 (interval schedule) in combination with anti-PD-1 200 μg IP BIW", "result": "not reached"}, {"measurement": "% TGI on Day 32", "setting": "[3]; [9]", "result": 97.1, "unit": "%"}, {"measurement": "Cures on Day 66", "setting": "[3]; [9]", "result": "3/8"}, {"measurement": "Median Survival", "setting": "[3]; [9]", "result": 66, "unit": "days"}, {"measurement": "% TGI on Day 32", "setting": "[3]; [10]", "result": 98.5, "unit": "%"}, {"measurement": "Cures on Day 66", "setting": "[3]; [10]", "result": "3/8"}, {"measurement": "Median Survival (days)", "setting": "[3]; Compound 1 50 mg/kg PO BID Days 10-30 (21 days) in combination with anti-PD-1 200 μg IP BIW", "result": "not reached"}, {"measurement": "% TGI on Day 32", "setting": "[3]; [11]", "result": 99.3, "unit": "%"}, {"measurement": "Cures on Day 66", "setting": "[3]; [11]", "result": "5/7"}, {"measurement": "Median Survival (days)", "setting": "[3]; Compound 1 50 mg/kg PO BID Days 10-37 (28 days) in combination with anti-PD-1 200 μg IP BIW", "result": "not reached"}, {"measurement": "% TGI on Day 32", "setting": "[3]; [12]", "result": 95.6, "unit": "%"}, {"measurement": "Cures on Day 66", "setting": "[3]; [12]", "result": "0/6"}, {"measurement": "Median Survival", "setting": "[3]; [12]", "result": 66, "unit": "days"}, {"measurement": "P-gp substrate status", "setting": "[4]", "result": "substrate of P-gp and BCRP"}, {"measurement": "response of cured mice to subsequent re-challenge with the same syngeneic tumor", "setting": "[5]", "result": "resistant to subsequent re-challenge with the same syngeneic tumor"}]}]}
